Experimental data published in PubChem BioAssay (NCI).
Several values for one entry are separate records, joined by “and”; a condition that tells them apart may be missing. Equal values may be shown once.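 Grown in 96-well plates, cells were treated for 48 hours with each compound at five concentrations. Insufficient inhibition: endpoint recorded as highest concentration tested. GI50: concentration for 50% inhibition of growth. TGI: concentration producing complete growth inhibition.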

What was measured:
Assay in all cases: inhibition of tumour cell growth, NCI panel, 48 h; in the data active means GI50 below about 0.43 µM; inactive means the rest
786-0 renal = tested on: 786-0 renal
COLO 205 colon = tested on: COLO 205 colon
HCT-116 colon = tested on: HCT-116 colon
HL-60(TB) leukemia = tested on: HL-60(TB) leukemia
IGROV1 ovarian = tested on: IGROV1 ovarian
SF-539 CNS = tested on: SF-539 CNS
SK-MEL-5 melanoma = tested on: SK-MEL-5 melanoma
SNB-19 CNS = tested on: SNB-19 CNS
T-47D breast = tested on: T-47D breast
K-562 leukemia = tested on: K-562 leukemia

CC(=O)NC1C(OCc2ccccc2)OC(CO)C(O)C1OC(C)C(=O)NC(C(=O)NC(CCC(=O)NCCCNc1ccc([N+](=O)[O-])c2[nH]c3ccccc3c(=O)c12)C(N)=O)C(C)C (configuration not stated)
> 100 µM: TGI (786-0 renal) | TGI (COLO 205 colon) | TGI (HCT-116 colon) | TGI (HL-60(TB) leukemia) | TGI (IGROV1 ovarian) | TGI (SF-539 CNS) | TGI (SK-MEL-5 melanoma) | TGI (SNB-19 CNS) | TGI (T-47D breast)

CC1(C)C2CC3C(C)(C2)C31c1cc(Cl)ccc1N (configuration not stated)
33.5 µM: TGI (SNB-19 CNS)
27.6 µM: TGI (IGROV1 ovarian)
33.2 µM: TGI (COLO 205 colon)
17.5 µM: TGI (HCT-116 colon)
26.2 µM: TGI (T-47D breast)
23.5 µM: TGI (K-562 leukemia)
27.1 µM: TGI (SK-MEL-5 melanoma)
28.6 µM: TGI (786-0 renal)
32 µM: TGI (SF-539 CNS)

COc1ccc(NC(=O)CSC(=O)c2ccccc2)c(SCCSSCCSc2cc(OC)ccc2NC(=O)CSC(=O)c2ccccc2)c1
> 100 µM: TGI (786-0 renal) | TGI (HCT-116 colon) | TGI (HL-60(TB) leukemia) | TGI (IGROV1 ovarian) | TGI (SF-539 CNS) | TGI (SK-MEL-5 melanoma) | TGI (SNB-19 CNS) | TGI (T-47D breast)
24.2 µM: TGI (COLO 205 colon)

CC(=O)C(CN1C(=O)c2ccccc2C1=O)C(C)=O
> 100 µM: TGI (786-0 renal) | TGI (COLO 205 colon) | TGI (HCT-116 colon) | TGI (IGROV1 ovarian) | TGI (K-562 leukemia) | TGI (SF-539 CNS) | TGI (SK-MEL-5 melanoma) | TGI (SNB-19 CNS) | TGI (T-47D breast)

O=C(O)c1cc(NCc2cc(O)ccc2O)ccc1O
> 100 µM: TGI (786-0 renal) | TGI (COLO 205 colon) | TGI (HCT-116 colon) | TGI (IGROV1 ovarian) | TGI (SF-539 CNS) | TGI (SK-MEL-5 melanoma) | TGI (SNB-19 CNS) | TGI (T-47D breast)

COC(=O)C1=C(C)NC(C)=C(C(=O)OC)C1c1cccc(/[N+]([O-])=C/c2ccccc2)c1
30.4 µM: TGI (HCT-116 colon)
31.5 µM: TGI (786-0 renal)
71 µM: TGI (HL-60(TB) leukemia)
30.5 µM: TGI (COLO 205 colon)
> 100 µM: TGI (IGROV1 ovarian) | TGI (SF-539 CNS) | TGI (SK-MEL-5 melanoma) | TGI (SNB-19 CNS)
41.6 µM: TGI (T-47D breast)

OC(CCN1CCN(CCOC(c2ccccc2)c2ccccc2)CC1)c1ccccc1 (configuration not stated)
44.3 µM: TGI (HL-60(TB) leukemia)
59.3 µM: TGI (IGROV1 ovarian)
88.6 µM: TGI (SNB-19 CNS)
33.8 µM: TGI (786-0 renal)
34.3 µM: TGI (HCT-116 colon)
48.8 µM: TGI (T-47D breast)
36.8 µM: TGI (SF-539 CNS)
29.6 µM: TGI (SK-MEL-5 melanoma)
29.1 µM: TGI (COLO 205 colon)

CCOC(=O)c1nc2ccccc2nc1Nc1ccc(C(=O)OC)s1
> 100 µM: TGI (786-0 renal) | TGI (COLO 205 colon) | TGI (HCT-116 colon) | TGI (HL-60(TB) leukemia) | TGI (IGROV1 ovarian) | TGI (SF-539 CNS) | TGI (SK-MEL-5 melanoma) | TGI (SNB-19 CNS) | TGI (T-47D breast)

O/N=C1\C/C(=N\O)c2c(Br)sc(Br)c21
97.8 µM: TGI (IGROV1 ovarian)
> 100 µM: TGI (786-0 renal) | TGI (COLO 205 colon) | TGI (HCT-116 colon) | TGI (HL-60(TB) leukemia) | TGI (K-562 leukemia) | TGI (SF-539 CNS) | TGI (SK-MEL-5 melanoma) | TGI (T-47D breast)

CCOC(=O)c1sc2nc(SC)nc3c2c1NCN3C
75.3 µM: TGI (SNB-19 CNS)
39.2 µM: TGI (IGROV1 ovarian)
25.9 µM: TGI (T-47D breast)
47.3 µM: TGI (786-0 renal)
> 100 µM: TGI (COLO 205 colon) | TGI (HCT-116 colon) | TGI (SK-MEL-5 melanoma)

N#Cc1ccc(-c2ccc(Cl)cc2)n(C2OC(CO)C(O)C(O)C2O)c1=S (configuration not stated)
inactive: GI50 (IGROV1 ovarian) > 100 µM and 28 µM | GI50 (SNB-19 CNS) > 100 µM and 26.4 µM
> 100 µM: TGI (786-0 renal) | TGI (HCT-116 colon) | TGI (HL-60(TB) leukemia) | TGI (IGROV1 ovarian) | TGI (K-562 leukemia) | TGI (SF-539 CNS) | TGI (SK-MEL-5 melanoma) | TGI (SNB-19 CNS) | TGI (T-47D breast)

CCCCCCc1ccc(CCCCCCCC(=O)O)o1
71.6 µM: TGI (K-562 leukemia)
> 100 µM: TGI (786-0 renal) | TGI (COLO 205 colon) | TGI (HCT-116 colon) | TGI (IGROV1 ovarian) | TGI (SF-539 CNS) | TGI (SK-MEL-5 melanoma) | TGI (SNB-19 CNS) | TGI (T-47D breast)

Cc1cn(C2CC(O)C(Cn3nncc3Cn3nc(Br)c(=O)[nH]c3=O)O2)c(=O)[nH]c1=O (configuration not stated)
> 100 µM: TGI (786-0 renal) | TGI (COLO 205 colon) | TGI (HCT-116 colon) | TGI (IGROV1 ovarian) | TGI (SF-539 CNS) | TGI (SK-MEL-5 melanoma) | TGI (SNB-19 CNS) | TGI (T-47D breast)

COc1ccc(C2N(c3ccc(C)c(N=C=O)c3)C(=O)N3C(c4ccc(OC)cc4)N(c4ccc(C)c(N=C=O)c4)C(=O)N23)cc1 (configuration not stated)
> 100 µM: TGI (786-0 renal) | TGI (COLO 205 colon) | TGI (HCT-116 colon) | TGI (HL-60(TB) leukemia) | TGI (IGROV1 ovarian) | TGI (K-562 leukemia) | TGI (SF-539 CNS) | TGI (SK-MEL-5 melanoma) | TGI (SNB-19 CNS)

CN(C)C(=O)N1N[C@H](c2ccccc2)[C@@H]1c1ccccc1
> 100 µM: TGI (786-0 renal) | TGI (COLO 205 colon) | TGI (HCT-116 colon) | TGI (IGROV1 ovarian) | TGI (K-562 leukemia) | TGI (SF-539 CNS) | TGI (SK-MEL-5 melanoma) | TGI (SNB-19 CNS) | TGI (T-47D breast)

N#CCCN(CCCCN(CCC#N)C(=O)Nc1ccccc1)C(=O)Nc1ccccc1
> 100 µM: TGI (786-0 renal) | TGI (COLO 205 colon) | TGI (HCT-116 colon) | TGI (HL-60(TB) leukemia) | TGI (IGROV1 ovarian) | TGI (K-562 leukemia) | TGI (SK-MEL-5 melanoma) | TGI (SNB-19 CNS) | TGI (T-47D breast)

CCC[N+](C)(C)CCCNC(=O)c1c(O)c2ccccc2[nH]c1=O
> 100 µM: TGI (786-0 renal) | TGI (COLO 205 colon) | TGI (HCT-116 colon) | TGI (HL-60(TB) leukemia) | TGI (IGROV1 ovarian) | TGI (K-562 leukemia) | TGI (SF-539 CNS) | TGI (T-47D breast)
54.8 µM: TGI (SK-MEL-5 melanoma)

CC1(C)CCC2=C(O1)c1ccccc1C(=Nc1ccc([N+](=O)[O-])cc1)C2=O
30.4 µM: TGI (COLO 205 colon)
31 µM: TGI (T-47D breast)
inactive: GI50 (COLO 205 colon) 16.8 µM
30.3 µM: TGI (SK-MEL-5 melanoma)
19.9 µM: TGI (HCT-116 colon)
34.1 µM: TGI (786-0 renal)
32.5 µM: TGI (SNB-19 CNS)
> 100 µM: TGI (HL-60(TB) leukemia) | TGI (IGROV1 ovarian) | TGI (K-562 leukemia)

CC(C)OC1=C(CC2(C)OCCO2)C(=O)C12OCCO2
> 100 µM: TGI (786-0 renal) | TGI (COLO 205 colon) | TGI (HCT-116 colon) | TGI (HL-60(TB) leukemia) | TGI (IGROV1 ovarian) | TGI (SF-539 CNS) | TGI (SK-MEL-5 melanoma) | TGI (SNB-19 CNS) | TGI (T-47D breast)

COP(=O)(CP(=O)(OC)OCCC(C)CCC=C(C)C)OC (configuration not stated)
> 100 µM: TGI (786-0 renal) | TGI (COLO 205 colon) | TGI (HCT-116 colon) | TGI (IGROV1 ovarian) | TGI (K-562 leukemia) | TGI (SF-539 CNS) | TGI (SK-MEL-5 melanoma) | TGI (SNB-19 CNS) | TGI (T-47D breast)

COc1ccc(/C(=N/O)c2ccccc2C2=Nc3ccccc3C(NCc3ccccc3)O2)cc1C (configuration not stated)
> 100 µM: TGI (786-0 renal) | TGI (HCT-116 colon) | TGI (HL-60(TB) leukemia) | TGI (IGROV1 ovarian) | TGI (SF-539 CNS) | TGI (SNB-19 CNS)
97.4 µM: TGI (K-562 leukemia)
38.9 µM: TGI (COLO 205 colon)
32.8 µM: TGI (SK-MEL-5 melanoma)

O=c1oc2ccccc2c(O)c1C(c1ccc(OCc2ccccc2)cc1)c1c(O)c2ccccc2oc1=O
65.9 µM: TGI (HL-60(TB) leukemia)
60.1 µM: TGI (SK-MEL-5 melanoma)
> 100 µM: TGI (786-0 renal) | TGI (COLO 205 colon) | TGI (HCT-116 colon) | TGI (IGROV1 ovarian) | TGI (SF-539 CNS) | TGI (SNB-19 CNS) | TGI (T-47D breast)
